Reference: patent US20180057505A1, “BICYCLIC HETEROARYL COMPOUNDS USEFUL AS INHIBITORS OF THE PAR-2 SIGNALING PATHWAY” (VERTEX PHARMACEUTICALS INCORPORATED, priority 2015, published 2018)

Columns and labels:
Type in all cases: cell-based
[1] = molecular target: T1, PAR2 (HT-29 cells) (Homo sapiens, UniProt P55085); test: Ca FLIPR TETRA assay, ANTAGONIST mode, activator 3.1 U/mL trypsin; conditions: HT-29 cells; activator 3.1 U/mL trypsin; Method A: maximal concentration of antagonist 0.1, 1 or 2 μM
T1 construct: host or cells: HT-29
T1 sequence (P55085 26-397): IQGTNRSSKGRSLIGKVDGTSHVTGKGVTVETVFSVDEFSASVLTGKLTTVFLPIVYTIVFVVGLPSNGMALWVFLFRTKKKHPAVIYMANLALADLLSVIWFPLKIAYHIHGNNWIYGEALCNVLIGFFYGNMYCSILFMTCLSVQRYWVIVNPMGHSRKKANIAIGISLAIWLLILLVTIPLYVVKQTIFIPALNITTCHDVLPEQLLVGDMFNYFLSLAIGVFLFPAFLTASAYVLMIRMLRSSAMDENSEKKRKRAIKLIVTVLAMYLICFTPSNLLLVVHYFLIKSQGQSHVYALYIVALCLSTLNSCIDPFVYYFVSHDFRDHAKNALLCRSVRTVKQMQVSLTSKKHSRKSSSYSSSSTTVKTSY
Method in brief: (§1)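 HT-29 cells plated overnight at 37 °C in 1% FBS/McCoy's, loaded with calcium 5 dye (45 min 37 °C, 15 min r.t.), then preincubated with compounds 30 min at r.t. before a fixed activator challenge. Intracellular Ca2+ read by FLIPR Tetra; a first read checks compound-alone activation.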

[2] = tested on: UTP-stimulated Ca2+ response in HT-29 cells; test: Ca FLIPR TETRA assay, ANTAGONIST mode, activator 0.6 μM UTP; conditions: HT-29 cells, activator 0.6 μM UTP
Method in brief: as §1

[3] = tested on: Thrombin-stimulated Ca2+ response in HT-29 cells; test: Ca FLIPR TETRA assay, ANTAGONIST mode, activator 1 U/mL Thrombin; conditions: HT-29 cells, activator 1 U/mL Thrombin
Method in brief: as §1

[4] = molecular target: T1, PAR2 (HT-29 cells); test: Ca FLIPR TETRA assay, ANTAGONIST mode, activator 8 μM SLIGKV; conditions: HT-29 cells; activator 8 μM SLIGKV; Method A: maximal concentration of antagonist 0.1, 1 or 2 μM
Method in brief: as §1

Row | Compound | IC50 [1] [nM] | IC50 [2] [nM] | IC50 [3] [nM] | IC50 [4] [nM] | IC50 ([2]; Homo sapiens) [nM] | IC50 ([3]; Homo sapiens) [nM]
1 | Cc1oc(C2CCN(C(=O)c3cc4nc(-c5ccc(Cl)c(F)c5)cc(C(C)(C)C)c4o3)C(C)(C)C2)nc1C(=O)O (stereo not drawn) [Example I-430] | 0.9 | > 2000 | > 2000 | 0.6 |  | 
2 | Cc1oc(C2CCN(C(=O)c3cc4nc(-c5ccc(Cl)cc5)cc(C(C)(C)C)c4o3)C(C)(C)C2)nc1C(=O)O (stereo not drawn) [Example I-431] | 0.9 | > 2000 | > 2000 | 0.7 |  | 
3 | CC(C)(C)c1cc(-c2ccc(Cl)c(F)c2)nc2cc(C(=O)N3CCC(CC(=O)NC#N)CC3(C)C)oc12 (stereo not drawn) [Example I-432] | 0.3 |  |  | 0.2 | 970 | 1100
4 | CC(C)(C)c1cc(-c2ccc(Cl)c(F)c2)nc2cc(C(=O)N3CCC(CC(=O)NS(=O)(=O)C(F)(F)F)CC3(C)C)oc12 (stereo not drawn) [Example I-433] | 3.4 |  |  | 2.7 | > 2000 | > 2000
5 | CC(C)(C)c1cc(N2CCC[C@H]2C(F)(F)F)nc2cc(C(=O)N3CCN(C(=O)[C@H]4C[C@](C)(O)C4)CC3(C)C)oc12 [Example I-434] | 75 |  |  | 26 | > 2000 | > 2000
6 | CC(C)(C)c1cc(N2CCC3(CC2)CC3)nc2cc(C(=O)N3CCN(C(=O)[C@H]4C[C@@](C)(O)C4)CC3(C)C)oc12 [Example I-435] | 3.8 |  |  | 1.6 | > 2000 | > 2000
7 | CC(C)(C)c1cc(N2CCC(C(F)(F)F)CC2)nc2cc(C(=O)N3CCN(C(=O)[C@H]4C[C@](C)(O)C4)CC3(C)C)oc12 [Example I-437] | 7.8 |  |  | 6.4 | > 2000 | > 2000
8 | CC(C)(C)c1cc(N2CCC(C#N)CC2)nc2cc(C(=O)N3CCN(C(=O)[C@H]4C[C@](C)(O)C4)CC3(C)C)oc12 [Example I-438] | 420 |  |  | 320 | > 2000 | > 2000
9 | CC1(O)CC(C(=O)N2CCN(C(=O)c3cc4nc(N5CCC(F)(F)C5)cc(C(C)(C)C)c4o3)C(C)(C)C2)C1 (stereo not drawn) [Example I-439] | 96 |  |  | 78 | > 2000 | > 2000
10 | CC(C)(C)c1cc(N2CCC[C@@H]2C(F)(F)F)nc2cc(C(=O)N3CCN(C(=O)[C@H]4C[C@](C)(O)C4)CC3(C)C)oc12 [Example I-440] | 640 |  |  | 520 | > 2000 | > 2000
11 | CC(C)(C)c1cc(N2CC3(C2)CC(F)(F)C3)nc2cc(C(=O)N3CCN(C(=O)[C@H]4C[C@](C)(O)C4)CC3(C)C)oc12 [Example I-441] | 130 |  |  | 76 | > 2000 | > 2000
12 | CC(C)(C)c1cc(N2CCC(C(C)(C)O)CC2)nc2cc(C(=O)N3CCN(C(=O)[C@H]4C[C@](C)(O)C4)CC3(C)C)oc12 [Example I-442] | > 2000 |  |  | > 2000 | > 2000 | > 2000
13 | CC(C)(C)c1cc(C2CC3(CCC3)C2)nc2cc(C(=O)N3CCN(c4ccc(C(=O)O)cn4)CC3(C)C)oc12 [Example I-443] | 0.6 |  |  | 0.5 | 1600 | > 2000
14 | CC(C)(C)c1cc(C2CC3(CCC3)C2)nc2cc(C(=O)N3CCN(C(=O)[C@@H]4CNCCO4)CC3(C)C)oc12 [Example I-444] | 76 |  |  | 65 | > 2000 | > 2000
15 | CC(C)(C)c1cc(C2CC3(CCC3)C2)nc2cc(C(=O)N3CCN(C(=O)[C@H]4CNCCO4)CC3(C)C)oc12 [Example I-445] | 260 |  |  | 260 | > 2000 | > 2000
16 | CC(C)(C)c1cc(C2CC3(CCC3)C2)nc2cc(C(=O)N3CCN(C(=O)[C@H]4COCCN4)CC3(C)C)oc12 [Example I-446] | 130 |  |  | 106 | > 2000 | > 2000
17 | CC(C)(C)c1cc(C2CC3(CCC3)C2)nc2cc(C(=O)N3CCN(C(=O)[C@@H]4COCCN4)CC3(C)C)oc12 [Example I-447] | 590 |  |  | 460 | > 2000 | > 2000
18 | CC1(C)CCC(c2cc(C(C)(C)C)c3oc(C(=O)N4CCN(c5nc(C(=O)O)co5)CC4(C)C)cc3n2)CC1 [Example I-450] | 0.8 |  |  | 0.4 | > 1010 | > 1010
19 | CC1(C)CCC(c2cc(C(C)(C)C)c3oc(C(=O)N4CCN(c5cnc(C(=O)O)cn5)CC4(C)C)cc3n2)CC1 [Example I-451] | 5.9 |  |  | 6.7 | > 2000 | > 2000
20 | CC(C)(C)c1cc(-c2ccc(Cl)cc2)nc2cc(C(=O)N3CCN(c4cnc(C(=O)O)cn4)CC3(C)C)oc12 [Example I-452] | 6.6 |  |  | 8.9 | > 2000 | > 2000
21 | CC(C)(C)c1cc(-c2ccc(F)cc2)nc2cc(C(=O)N3CCN(N4CCC(=O)NCC4(C)C)CC3(C)C)oc12 [Example I-453] | 660 |  |  | 450 | > 2000 | > 2000
22 | CC(C)(C)c1cc(-c2ccc(F)cc2)nc2cc(C(=O)N3CCN(N4CCNC(=O)CC4(C)C)CC3(C)C)oc12 [Example I-454] | 67 |  |  | 41 | > 2000 | > 2000
23 | CC1(C)CCC(c2cc(C(C)(C)C)c3oc(C(=O)N4CCN(c5nccc(C(=O)O)n5)CC4(C)C)cc3n2)CC1 [Example I-455] | 2.4 |  |  | 1.2 | 415 | 450
24 | CC(C)(C)c1cc(-c2ccc(Cl)c(F)c2)nc2cc(C(=O)N3CCN(c4cnc(C(=O)O)cn4)CC3(C)C)oc12 [Example I-456] | 4.2 |  |  | 3.2 | > 2000 | > 2000
25 | CC(C)(C)c1cc(-c2ccc(Cl)cc2)nc2cc(C(=O)N3CCN(c4nccc(C(=O)O)n4)CC3(C)C)oc12 [Example I-457] | 0.9 |  |  | 0.8 | 1500 | 1900
26 | CC1(C)CCC(c2cc(C(C)(C)C)c3oc(C(=O)N4CCN(c5cccc(C(=O)O)n5)C(=O)C4(C)C)cc3n2)CC1 [Example I-458] | 18 |  |  | 8.7 | 1190 | 1150
27 | CC(C)(C)c1cc(-c2ccc(Cl)c(F)c2)nc2cc(C(=O)N3CCN(c4cccc(C(=O)O)n4)C(=O)C3(C)C)oc12 [Example I-459] | 1.3 |  |  | 1.8 | 660 | 350
28 | CC(C)(C)c1cc(-c2ccc(Cl)cc2)nc2cc(C(=O)N3CCN(c4cccc(C(=O)O)n4)C(=O)C3(C)C)oc12 [Example I-460] | 14 |  |  | 10.6 | 1870 | 1730
29 | CC(C)(C)c1cc(-c2ccc(Cl)c(F)c2)nc2cc(C(=O)N3CCN(c4nccc(C(=O)O)n4)CC3(C)C)oc12 [Example I-461] | 0.5 |  |  | 0.4 | 560 | 660
30 | Cc1nc(N2CCN(C(=O)c3cc4nc(-c5ccc(Cl)cc5)cc(C(C)(C)C)c4o3)C(C)(C)C2)ncc1C(=O)O [Example I-462] | 0.8 |  |  | 0.6 | 1250 | 1600
